Consider three compounds from PubChem BioAssay AID602238 (National Center for Advancing Translational Sciences (NCATS), 2012).

In this data set the test system is mouse liver microsomes, percent remaining, LC-MS/MS. The experiment in a line: qHTS for Activators of Human alpha-Glucosidase as a Potential Chaperone Treatment of Pompe Disease: Metabolic Stability. The following applies: at 5 µM; active compounds read high. The text has this: Alpha-glucosidase is responsible for hydrolysis of terminal, non-reducing 1,4-linked alpha-D-glucose residues with release of alpha-D-glucose. It is a lysosomal hydrolase that is required for the degradation of a small percentage (1-3%) of cellular glycogen in human. Deficiency of this enzyme results in glycogen-storage disease type II (GSDII), also referred to as Pompe disease, an autosomal recessive disorder. Structurally normal glycogen is accumulated in lysosomes and cytoplasm in affected patients, primarily in muscle tissues. Excessive glycogen storage within lysosomes may interrupt normal functioning of other organelles and leads to cellular injury. In turn, this leads to enlargement and dysfunction of the entire organ involved (eg, cardiomyopathy and muscle weakness). It has reported that the improper folding and trafficking of alpha-glucosidase resulting from the genetic mutations may account for a significant number of Pompe patients. […] We optimized this alpha-glucosidase assay in 1536-well plate format for identifying the novel small molecule inhibitors with the structures other than the sugar analogs in order to develop the new pharmacological chaperones. The probe and other compounds were characterized in this metabolic stability assay to asses their properties. NIH Chemical Genomics Center [NCGC] NIH Molecular Libraries Probe Production Centers Network [MLPCN] MLPCN Grant: MH084841 Assay Submitter (PI): Wei Zheng
5uM of compound is incubated with mouse liver microsome; the reference compounds are verapamil and warfarin. Compounds are incubated and samples are analyzed with LC-MS/MS.
(In general: qHTS replaces the single test concentration by a dilution series.)
Take `CCCN1CNc2c(c(=O)[nH]c(=S)n2CCc2ccc(OC)c(OC)c2)C1`: the percent remaining is 4%.
Consider `CCCN1CNc2c(c(=O)[nH]c(=S)n2Cc2ccc(OC)c(OC)c2)C1`, for which the percent remaining is 101%.
On to `CCCN1CNc2c(c(=O)[nH]c(=S)n2CCc2cccc(Cl)c2Cl)C1`, for which the percent remaining is 105%.
